# Measured values as given in patent publication US10781204B2, “TYK2 inhibitors and uses thereof” (Nimbus Lakshmi, Inc., priority 2015, dated 2020).
# Assays:
# JAK2 = JAK2 (Homo sapiens (Human), UniProt O60674); experiment: JAK2 radioactive kinase assay; format: biochemical; settings: ATP 10 μM
# Summary of the method: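 Radiometric assay in Hepes pH 7.5, MgCl2, EGTA, Brij35, BSA, DTT, 1% DMSO, with 10 μM [33P]ATP, 120 min at room temp; P81 paper capture and counting. […]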
# TYK2 = TYK2 (Homo sapiens (Human), UniProt P29597); experiment: Tyk2 radioactive kinase assay; format: biochemical; settings: ATP 10 μM
# Summary of the method: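 Recombinant human TYK2 (Invitrogen) was mixed with 20 μM peptide substrate in a buffer of 20 mM Hepes pH 7.5, 10 mM MgCl2, 1 mM EGTA, 0.02% Brij35, 0.02 mg/mL BSA, 0.1 mM […], 2 mM DTT and 1% DMSO, and compounds in DMSO were added. Adding ^33P-ATP (10 μM ATP) started the reaction, which ran 120 min at room temperature. Mixtures were then spotted onto P81 ion-exchange paper, washed thoroughly in 0.75% phosphoric acid, and counted for radioactivity.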
# [1] = system: JAK2-pSTAT5 (GM-CSF induced pSTAT5); experiment: GM-CSF induced pSTAT5 in human PBMC; format: cell-based; settings: 5 ng/mL GM-CSF
# Summary of the method: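 Thawed human PBMC, 200,000 per well in serum-containing medium, were preincubated 1 hr at 37 C with compound in 0.1% DMSO. GM-CSF at 5 ng/mL final was added for 20 minutes, then pSTAT5 and total STAT5 in lysates were measured by MSD immunoassay.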
# [2] = system: Tyk2-pSTAT4 (IL-12 induced pSTAT4); experiment: IL-12 induced pSTAT4 in human PBMC; format: cell-based; settings: 1.7 ng/mL IL-12, 30 minutes
# Summary of the method: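 Thawed human PBMC (200,000 cells/well, serum-containing medium) preincubated with compound 1 hr at 37 C, 0.1% DMSO final. Stimulated with 1.7 ng/mL IL-12 (final) for 30 minutes; pSTAT4 and total STAT4 in lysates measured by MSD immunoassay.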
# Sequence of TYK2 (P29597 whole entry): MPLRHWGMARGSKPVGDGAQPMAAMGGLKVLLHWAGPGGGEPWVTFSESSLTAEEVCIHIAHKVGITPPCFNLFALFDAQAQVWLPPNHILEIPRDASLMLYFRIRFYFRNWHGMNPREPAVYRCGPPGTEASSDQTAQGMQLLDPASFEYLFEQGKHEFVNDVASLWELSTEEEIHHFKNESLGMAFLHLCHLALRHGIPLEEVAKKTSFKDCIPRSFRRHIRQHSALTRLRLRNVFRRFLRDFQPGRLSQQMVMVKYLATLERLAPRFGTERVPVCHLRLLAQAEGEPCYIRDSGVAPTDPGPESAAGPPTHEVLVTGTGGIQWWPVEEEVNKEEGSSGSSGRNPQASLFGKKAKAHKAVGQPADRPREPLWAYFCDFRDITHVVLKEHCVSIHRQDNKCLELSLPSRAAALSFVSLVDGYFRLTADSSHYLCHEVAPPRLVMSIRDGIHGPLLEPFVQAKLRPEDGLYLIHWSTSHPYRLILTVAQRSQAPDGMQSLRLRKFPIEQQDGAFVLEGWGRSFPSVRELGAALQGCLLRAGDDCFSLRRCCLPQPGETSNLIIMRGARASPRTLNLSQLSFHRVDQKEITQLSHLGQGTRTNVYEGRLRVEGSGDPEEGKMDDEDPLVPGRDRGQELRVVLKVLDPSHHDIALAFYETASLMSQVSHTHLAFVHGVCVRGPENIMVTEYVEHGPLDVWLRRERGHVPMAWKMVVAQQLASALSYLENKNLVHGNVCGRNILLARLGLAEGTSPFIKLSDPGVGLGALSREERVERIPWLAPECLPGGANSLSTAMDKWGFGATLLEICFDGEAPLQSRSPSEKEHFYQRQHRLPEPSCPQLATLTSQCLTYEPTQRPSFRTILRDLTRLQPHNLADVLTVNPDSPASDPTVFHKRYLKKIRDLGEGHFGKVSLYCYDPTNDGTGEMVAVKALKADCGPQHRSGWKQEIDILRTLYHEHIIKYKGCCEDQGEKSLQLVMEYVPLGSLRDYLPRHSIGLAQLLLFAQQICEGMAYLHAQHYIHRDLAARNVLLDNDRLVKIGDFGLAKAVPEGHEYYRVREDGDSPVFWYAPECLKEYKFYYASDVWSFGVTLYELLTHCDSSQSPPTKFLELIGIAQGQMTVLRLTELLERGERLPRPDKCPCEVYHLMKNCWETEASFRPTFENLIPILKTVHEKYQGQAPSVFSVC
# Sequence of JAK2 (O60674 whole entry): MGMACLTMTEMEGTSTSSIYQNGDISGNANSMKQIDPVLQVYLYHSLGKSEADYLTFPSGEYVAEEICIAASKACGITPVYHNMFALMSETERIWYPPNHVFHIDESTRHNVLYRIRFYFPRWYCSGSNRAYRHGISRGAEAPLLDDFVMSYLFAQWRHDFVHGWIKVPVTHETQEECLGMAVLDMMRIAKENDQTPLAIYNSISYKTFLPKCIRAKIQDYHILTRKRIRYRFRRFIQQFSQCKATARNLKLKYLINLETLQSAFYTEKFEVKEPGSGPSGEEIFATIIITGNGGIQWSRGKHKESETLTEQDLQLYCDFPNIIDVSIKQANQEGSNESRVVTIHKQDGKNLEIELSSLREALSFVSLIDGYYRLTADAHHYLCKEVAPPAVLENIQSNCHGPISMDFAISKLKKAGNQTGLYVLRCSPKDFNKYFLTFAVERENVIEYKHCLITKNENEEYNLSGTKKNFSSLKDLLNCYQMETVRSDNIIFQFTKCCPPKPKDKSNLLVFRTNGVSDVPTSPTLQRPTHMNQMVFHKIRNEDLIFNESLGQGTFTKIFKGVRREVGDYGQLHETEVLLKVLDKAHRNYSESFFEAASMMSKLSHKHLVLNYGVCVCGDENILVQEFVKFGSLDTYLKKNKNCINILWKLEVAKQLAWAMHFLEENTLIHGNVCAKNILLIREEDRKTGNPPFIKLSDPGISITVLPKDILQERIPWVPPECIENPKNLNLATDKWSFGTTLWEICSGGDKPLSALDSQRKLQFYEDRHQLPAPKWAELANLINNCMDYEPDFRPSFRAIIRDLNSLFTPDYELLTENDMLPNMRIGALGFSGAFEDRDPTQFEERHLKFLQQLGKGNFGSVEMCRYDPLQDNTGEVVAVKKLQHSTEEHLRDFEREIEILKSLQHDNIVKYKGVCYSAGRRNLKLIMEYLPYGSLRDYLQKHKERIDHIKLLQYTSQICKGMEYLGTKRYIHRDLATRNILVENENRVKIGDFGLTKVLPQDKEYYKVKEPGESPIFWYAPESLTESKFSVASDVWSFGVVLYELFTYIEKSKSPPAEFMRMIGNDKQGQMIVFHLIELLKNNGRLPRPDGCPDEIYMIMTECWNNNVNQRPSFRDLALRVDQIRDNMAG
Structure (SMILES),Ki (JAK2),Ki (TYK2),"EC50 ([1]; Homo sapiens, PBMC, 20 min)","EC50 ([2]; Homo sapiens, PBMC, 0.5 h)",EC50 ([1]; 20 minutes),EC50 [2]
"N#Cc1cccc(F)c1-c1cc(-n2ccc(N3CCC4(C3)OCCO4)n2)c2c(n1)CNC2=O [I-100, 2-(4-(3-(1,4-dioxa-7-azaspiro[4.4]nonan-7-yl)-1H-pyrazol-1-yl)-5-oxo-6,7-dihydro-5H-pyrrolo[3,4-b]pyridin-2-yl)-3-fluorobenzonitrile]",0.1 to 10 nM,0.009 to 0.1 nM,100 to 2000 nM,30 to 100 nM,–,–
"C[C@H]1[C@H](O)CCN1c1ccn(-c2cc(-c3c(F)cccc3C#N)nc3c2C(=O)NC3)n1 [I-150, 3-fluoro-2-(4-(3-((2S,3R)-3-hydroxy-2-methylpyrrolidin-1-yl)-1H-pyrazol-1-yl)-5-oxo-6,7-dihydro-5H-pyrrolo[3,4-b]pyridin-2-yl)benzonitrile]",0.1 to 10 nM,0.009 to 0.1 nM,> 2000 nM,30 to 100 nM,–,–
"CO[C@@H]1CN(c2ccn(-c3cc(-c4c(F)cccc4C#N)nc4c3C(=O)NC4)n2)CC[C@H]1O [I-201, 3-fluoro-2-(4-(3-((3R,4R)-4-hydroxy-3-methoxypiperidin-1-yl)-1H-pyrazol-1-yl)-5-oxo-6,7-dihydro-5H-pyrrolo[3,4-b]pyridin-2-yl)benzonitrile]",10 to 100 nM,0.1 to 10 nM,–,–,100 to 2000 nM,30 to 100 nM
"CC(=O)N[C@H]1CCCN(c2ccn(-c3cc(-c4c(F)cccc4C#N)nc4c3C(=O)NC4)n2)C1 [I-130, (S)-N-(1-(1-(2-(2-cyano-6-fluorophenyl)-5-oxo-6,7-dihydro-5H-pyrrolo[3,4-b]pyridin-4-yl)-1H-pyrazol-3-yl)piperidin-3-yl)acetamide]",10 to 100 nM,0.1 to 10 nM,100 to 2000 nM,100 to 2000 nM,–,–
"C[C@H]1CC[C@@H](O)CN1c1ccn(-c2cc(-c3c(F)cccc3C#N)nc3c2C(=O)NC3)n1 [I-113, 3-fluoro-2-(4-(3-((2S,5R)-5-hydroxy-2-methylpiperidin-1-yl)-1H-pyrazol-1-yl)-5-oxo-6,7-dihydro-5H-pyrrolo[3,4-b]pyridin-2-yl)benzonitrile]",10 to 100 nM,0.1 to 10 nM,100 to 2000 nM,100 to 2000 nM,–,–
"N#Cc1cccc(F)c1-c1cc(-n2ccc(N3C[C@H](O)C[C@H]3CO)n2)c2c(n1)CNC2=O [I-214, 3-fluoro-2-(4-(3-((2S,4R)-4-hydroxy-2-(hydroxymethyl)pyro-lidin-1-yl)-1H-pyrazol-1-yl)-5-oxo-6,7-dihydro-5H-pyrrolo[3,4-b]pyridin-2-yl)benzonitrile]",10 to 100 nM,0.1 to 10 nM,> 2000 nM,100 to 2000 nM,–,–
"N#Cc1cccc(F)c1-c1cc(-n2ccc(N3CCC(O)(C(=O)N4CCCC4)C3)n2)c2c(n1)CNC2=O (centres unmarked) [I-191, 3-fluoro-2-(4-(3-(3-hydroxy-3-(pyrrolidine-1-carbonyl)-pyrrolidin-1-yl)-1H-pyrazol-1-yl)-5-oxo-6,7-dihydro-5H-pyrrolo[3,4-b]pyridin-2-yl)benzonitrile]",0.1 to 10 nM,0.1 to 10 nM,100 to 2000 nM,100 to 2000 nM,–,–
"N#Cc1cccc(F)c1-c1cc(-n2ccc(N3CCCC(O)C3)n2)c2c(n1)CNC2=O (centres unmarked) [I-65, 3-fluoro-2-(4-(3-(3-hydroxypiperidin-1-yl)-1H-pyrazol-1-yl)-5-oxo-6,7-dihydro-5H-pyrrolo[3,4-b]pyridin-2-yl)benzonitrile]",10 to 100 nM,0.1 to 10 nM,100 to 2000 nM,30 to 100 nM,–,–
"CO[C@H]1CN(c2ccn(-c3cc(-c4c(F)cccc4C#N)nc4c3C(=O)NC4)n2)CC[C@H]1O [I-181, 3-fluoro-2-(4-(3-((3S,4R)-4-hydroxy-3-methoxypiperidin-1-yl)-1H-pyrazol-1-yl)-5-oxo-6,7-dihydro-5H-pyrrolo[3,4-b]pyridin-2-yl)benzonitrile]",10 to 100 nM,0.1 to 10 nM,100 to 2000 nM,100 to 2000 nM,–,–
"CC(=O)Nc1ccn(-c2cc(-c3c(F)cccc3C#N)nc3c2C(=O)NC3)n1 [I-212, N-(1-(2-(2-cyano-6-fluorophenyl)-5-oxo-6,7-dihydro-5H-pyrrolo[3,4-b]pyridin-4-yl)-1H-pyrazol-3-yl)acetamide]",100 to 1000 nM,0.1 to 10 nM,> 2000 nM,100 to 2000 nM,–,–
"N#Cc1cccc(F)c1-c1cc(-n2ccc(N3C[C@H]4CC[C@@H](C3)O4)n2)c2c(n1)CNC2=O [I-188, 2-(4-(3-((1R,5S)-8-oxa-3-azabicyclo[3.2.1]octan-3-yl)-1H-pyrazol-1-yl)-5-oxo-6,7-dihydro-5H-pyrrolo[3,4-b]pyridin-2-yl)-3-fluorobenzonitrile]",0.1 to 10 nM,0.009 to 0.1 nM,100 to 2000 nM,100 to 2000 nM,–,–
"N#Cc1cccc(F)c1-c1cc(-n2ccc(N3CCC[C@](O)(C(F)(F)F)C3)n2)c2c(n1)CNC2=O [I-88, (R)-3-fluoro-2-(4-(3-(3-hydroxy-3-(trifluoromethyl)piperidin-1-yl)-1H-pyrazol-1-yl)-5-oxo-6,7-dihydro-5H-pyrrolo[3,4-b]pyridin-2-yl)benzonitrile]",10 to 100 nM,0.009 to 0.1 nM,> 2000 nM,100 to 2000 nM,–,–
"[2H]C1([2H])N(c2ccn(-c3cc(-c4c(F)cccc4C#N)nc4c3C(=O)NC4)n2)C([2H])([2H])[C@]([2H])(O)C1([2H])[2H] [I-208, (R)-3-fluoro-2-(4-(3-(3-hydroxypyrrolidin-1-yl-2,2,3,4,4,5,5-d7)-1H-pyrazol-1-yl)-5-oxo-6,7-dihydro-5H-pyrrolo[3,4-b]pyridin-2-yl)benzonitrile]",10 to 100 nM,0.1 to 10 nM,> 2000 nM,100 to 2000 nM,–,–
"[2H]C1([2H])NC(=O)c2c(-n3ccc(N4C([2H])([2H])C[C@@](O)(C([2H])([2H])[2H])C4([2H])[2H])n3)cc(-c3c(F)cccc3C#N)nc21 [I-206, (S)-3-fluoro-2-(4-(3-(3-hydroxy-3-(methyl-d3)pyrrolidin-1-yl-2,2,5,5-d4)-1H-pyrazol-1-yl)-5-oxo-6,7-dihydro-5H-pyrrolo[3,4-b]pyridin-2-yl-7,7-d2)benzonitrile]",10 to 100 nM,0.1 to 10 nM,100 to 2000 nM,30 to 100 nM,–,–
"[2H]C1([2H])C[C@](O)(C([2H])([2H])[2H])C([2H])([2H])N1c1ccn(-c2cc(-c3c(F)cccc3C#N)nc3c2C(=O)NC3)n1 [I-184, (R)-3-fluoro-2-(4-(3-(3-hydroxy-3-(methyl-d3)pyrrolidin-1-yl-2,2,5,5-d4)-1H-pyrazol-1-yl)-5-oxo-6,7-dihydro-5H-pyrrolo[3,4-b]pyridin-2-yl)benzonitrile]",0.1 to 10 nM,0.1 to 10 nM,100 to 2000 nM,30 to 100 nM,–,–
"N#Cc1cccc(F)c1-c1cc(-c2ccn(C(=O)N3CCOCC3)n2)c2c(n1)CNC2=O [I-231, 3-fluoro-2-(4-(1-(morpholine-4-carbonyl)-1H-pyrazol-3-yl)-5-oxo-6,7-dihydro-5H-pyrrolo[3,4-b]pyridin-2-yl)benzonitrile]",100 to 1000 nM,10 to 100 nM,> 2000 nM,> 2000 nM,–,–
"CS(=O)(=O)NC1CCN(c2ccn(-c3cc(-c4c(F)cccc4C#N)nc4c3C(=O)NC4)n2)C1 (centres unmarked) [I-120, N-(1-(1-(2-(2-cyano-6-fluorophenyl)-5-oxo-6,7-dihydro-5H-pyrrolo[3,4-b]pyridin-4-yl)-1H-pyrazol-3-yl)pyrrolidin-3-yl)methanesulfonamide]",0.1 to 10 nM,0.1 to 10 nM,100 to 2000 nM,100 to 2000 nM,–,–
